US20030224000A1, “Methods for blocking or alleviating staphylococcal nasal colonization by intranasal application of monoclonal antibodies” (priority 2001, published 2003)

Key:
[1] = tested on: S. aureus strain MBT 5040; test: Minimal inhibitory concentration (MIC); assay type: cell-based; details: Staphylococcus aureus; S. aureus MBT 5040, clinical MRSA strain
[2] = tested on: streptomycin resistant S. aureus type 5 (SA5); test: Mouse nasal colonization model, S. aureus preincubated with MAb before instillation; assay type: in vivo, mice
Procedure: Kiser et al. developed a staphylococcal nasal colonization model in mice to study staphylococcal factors that influence nasal colonization (30). […] Briefly, streptomycin resistant S. aureus type 5 was grown on high salt Columbia agar to promote capsule formation. The bacteria were washed with sterile saline to remove media components and resuspended at ˜10^8 organisms/animal dose in saline containing various concentrations and combinations of anti-staphylococcal or irrelevant control MAbs. Following a preincubation of 1 hr, the bacteria were repelleted and resuspended in a final volume of 10 μl per animal dose in either saline or saline containing antibody. Mice that have been maintained on streptomycin-containing water for 24 hrs were sedated with anesthesia. Staphylococci were instilled in the nares of the mice by pipetting without contact with the nose.
Generally, following four to seven days during which the animals were maintained on streptomycin-containing water, the animals were sacrificed and the noses removed surgically and dissected. Nasal tissue was vortexed vigorously in saline plus 0.5% Tween-20 to release adherent bacteria, and the saline was plated on Columbia blood agar and tryptic soy agar containing streptomycin to determine colonization.
According to this procedure, streptomycin-resistant S. aureus type 5 (SA5, 1 to 3×10^8/mouse) was preincubated for 1 hr in saline or saline containing A110 (2-3 mg purified IgG/mouse dose of 1-3×10^8 bacteria). Following preincubation, the bacteria were pelleted and resuspended in saline or in saline containing A110 (10 μl/mouse dose). Ten mice each were intranasally instilled with SA5 in saline or SA5 in A110. Table 4 tabulates three experiments showing that nasal application of A110 in PBS blocks and alleviates staphylococcal nasal colonization.

[3] = Table 5: 2 × 10^8 SA5 instilled with MAb, 2 mg/mouse dose

| Compound | MIC [1] | Effect on staphylococcal nasal colonization in mice ([2]; MAb in saline, Table 5 experiment) | Average number of colonies recovered per mouse [2, 3] | Number of mice colonized [2, 3] |
| --- | --- | --- | --- | --- |
| COc1cccc(OC)c1C(=O)N[C@@H]1C(=O)N2[C@@H]1SC(C)(C)[C@@H]2C(=O)O [methicillin] | > 36 µg/mL | – | – | – |
| Medi 493: irrelevant control, chimeric IgG1 MAb against RSV (MedImmune) | – | no effect | 137 | 9/9 |
